Measured values from article PMC11331414, “Small molecule telomerase inhibitors are also potent inhibitors of telomeric C-strand synthesis” (RNA, 2024).
Like-named read-outs stand apart in the source and are kept apart here.

How the values were obtained:
[1] = target: T1, telomerase (Homo sapiens, UniProt O14746); experiment: Telomerase inhibition (direct primer extension, 3xTEL primer); format: biochemical
T1 construct: 3xFLAG (N); made in house; host or cells: HEK293T

[2] = target: CST–PP (CST–polymerase α–primase); experiment: CST–PP binding to template DNA (EMSA) inhibition; set-up: species or system human; conditions: 25 nM CST–PP, 25 nM template, read-out: IC50binding
Method: To test directly if TMPyP4 inhibited CST–PP by preventing association with the templates, we next measured the effect of the drug on the proportion of DNA bound by CST–PP. We used the same conditions as in the synthesis reaction and observed that the DNA was about half bound in the absence of an inhibitor. We prepared DNA templates with an increasing concentration of TMPyP4 as before, then incubated with CST–PP and analyzed by EMSA (electrophoretic mobility shift assay) (Fig. 2A). By normalizing the fraction of DNA bound at each concentration of inhibitor to fraction bound without drug, we determined IC50 values for binding (IC50binding) in the two salts for both 9xTEL and 9xnoGG (Fig. 2B; Table 1).
(§1) CST–PP was purified from HEK 293T/17 cells (CRL-11268, ATCC), as previously described ([Zaug et al. 2021], [2022]). Briefly, cells were transfected with 3xFLAG-CTC1, Myc-STN1, and HA-TEN1 at a ratio of 1:1:1, expanded and grown for 48 h, and collected. The complex was purified by successive anti-FLAG and anti-HA immunoprecipitation. Endogenous Polα–primase copurifies with CST ([Zaug et al. 2022]). The purity of the complex was verified by silver staining and concentrations were determined by western blot analysis ([Zaug et al. 2022]).
Binding reactions were prepared identically to synthesis reactions, except glycerol (10% final) was added in place of the NTP mix. DNA and small molecules were incubated for 30 min at 30°C, then CST was added and incubation continued for another hour. Samples were loaded onto a 1× TBE 0.7% agarose gel and run at 70 V for 75 min at 4°C. The gels were placed on Hybond N^+ atop Whatman 3 mm paper and dried under a vacuum at 80°C for 1 h. They were then exposed to a phosphorimager screen, which was imaged using an Amersham Typhoon scanner 5. Binding was analyzed using ImageQuant; fraction bound was determined by dividing the number of counts in the bound band by the total number of counts in the lane, not including the well. Relative binding was calculated by dividing the fraction bound at each inhibitor concentration by the fraction bound without inhibitor. Results were plotted and analyzed as above.

[3] = system: 9xTEL DNA (TTAGGG)9; experiment: Circular dichroism thermal melt of 9xTEL DNA; set-up: species or system human; conditions: 10:1 small molecule:DNA
Text: As the native gels were insufficient to identify the types of secondary structures formed by the ssDNA templates, we turned to circular dichroism (CD) for more information. We first examined 9xTEL in NaCl; with positive peaks at 290 and 240 nm and a negative peak at 260 nm, the spectrum matched published spectra for antiparallel GQ formation (Fig. 5A). We also collected spectra of 9xTEL in Na^+/K^+ and in K^+ only, which were both consistent with hybrid GQ (Supplemental Fig. S4A,B). Then we added TMPyP4 to 9xTEL at a ratio of 10:1 in each salt condition. […] We performed thermal melts of 9xTEL in Na^+ with and without TMPyP4, monitoring the signal from the positive peak at 290 nm and the negative peak at 260 nm (Fig. 5B). We found the drug increased the melting temperature (Tm) by about 10°C. Thus, 9xTEL DNA in Na^+ forms an antiparallel GQ that is stabilized by TMPyP4, consistent with previous studies ([Martino et al. 2009]).
(§2) CD samples contained 250 nM DNA in 75 mM NaCl and 50 mM KCl (Na^+/K^+), or 125 mM NaCl, KCl, or LiCl, 0.2× reaction buffer (10 mM Tris-HCl pH 8.0, 0.4 mM MgCl2, 0.2 mM spermidine, and 1 mM β-mercaptoethanol), and 0.02% DMSO; those with inhibitors also included 2.5 µM TMPyP4 or PDS. Baseline control samples consisted of 1× corresponding salt and 0.2× reaction buffer.
(§3) Samples containing DNA, salt, and buffer were placed in 95°C heat block for 10 min and cooled at room temperature for 30 min. PDS, TMPyP4, or DMSO was added and samples were incubated at 30°C for 30 min; 1.8 mL was added to a 10 mm path length cuvette and loaded into a Chirascan Plus Circular Dichroism and Fluorescence Spectrometer (Applied Photophysics). Spectra were collected between 360 and 220 nm with a step size of 1 nm. Three repeats were averaged and smoothed with a second-order polynomial with 10 neighbors on each side (Prism).
Continuous ramped thermal melts were performed at the indicated wavelengths with a 2 nm bandwidth. The temperature was increased from 20°C to 90°C at a rate of 1°C/min with a time-per-point of 12 sec. […]

[4] = target: CST–PP (CST–polymerase α–primase); experiment: CST–PP C-strand synthesis inhibition; format: biochemical, human; conditions: for IC50: 25 nM CST–PP, 25 nM template, read-out: IC50synthesis
Method: Telomeric C-strand synthesis was performed with CST–PP purified from cultured human cells (HEK293T), a synthetic telomeric DNA template (9xTEL, (TTAGGG)9), ribonucleotides to allow primase activity, and deoxynucleotides including α-^32P-dATP to monitor polymerase α extension. To test whether TMPyP4 would inhibit DNA synthesis by CST–PP, we preincubated 25 nM 9xTEL with increasing concentrations of the drug, then added 25 nM CST–PP and nucleotides and observed C-strand synthesis by gel electrophoresis (Fig. 1A, left). To serve as a size marker and recovery control, a small fraction of the template (T) was radiolabeled. The expected synthesis products were observed, all smaller than the 54-nt template (Supplemental Fig. S2A). The limited extension reflects the limited processivity of CST–PP, and the 6-nt ladder of products is due to multiple initiation sites on the 6-nt repeat template ([Zaug et al. 2022]).
as §1
Reactions (10 μL) contained 25 nM CST–PP and 25 nM single-stranded template DNA in 1× reaction buffer (50 mM Tris-HCl pH 8.0, 2 mM MgCl2, 1 mM spermidine, and 5 mM β-mercaptoethanol), 1× Na^+/K^+ (75 mM KCl and 50 mM NaCl) or 1× Li^+ (125 mM LiCl) salts, rNTPs (0.2 mM each CTP, UTP, ATP), and dNTPs (0.5 mM dCTP, 0.5 mM dTTP, 0.33 μM [α-^32P]dATP [300 Ci mmol^–1], 0.29 μM unlabeled dATP), the indicated concentrations of TMPyP4 or PDS, and 0.2% DMSO.
DNA templates and small molecule dilutions were prepared fresh immediately before each use. A small proportion of the template DNA was 5′ radiolabeled (typically ∼0.1–0.5 nM, 5000 counts per minute per reaction) to serve as a recovery and loading control and internal size marker. CST–PP generated more products with 9xnoGG in Na^+/K^+ than in other conditions, so in that condition, 5× more radioactive template was used (keeping total DNA at 25 nM) so that the control signal was not overwhelmed by the product signal. DNA templates in buffer and designated salt were placed in 95°C heat block for 5 min and cooled at room temperature for 30 min. Dilutions of PDS or TMPyP4 in 1% DMSO (or 1% DMSO only for no inhibitor condition) were added (final 0.2% DMSO), and mixtures were incubated in 30°C water bath for 30 min. CST–PP was added and mixtures were returned to water bath for 30 min. NTPs were added and the reaction proceeded at 30°C for 1 h; 50 µL stop mix (3.6 M ammonium acetate and 0.2 mg mL^−1 glycogen) was then added.
Quenched reactions were cleaned up using the Oligo Clean & Concentrator kit (D4060, Zymo) and eluted in water. An equivalent volume of 2× loading dye (95% formamide, 20 mM EDTA, and 0.05% each bromophenol blue and xylene cyanol) was added. Samples were boiled for 5 min, then loaded on a 10% acrylamide, 7 M urea, and 1× TBE gel. Molecular weight ladders were generated by telomerase as above (no small molecule). Gels were run at 30 W until the bromophenol blue was ∼2 in from the bottom (∼1–1.5 h) and dried on Whatman 3 mm paper at 80°C under a vacuum for 15–30 min. Gels were then exposed to a phosphorimager screen, which was imaged with Amersham Typhoon scanner 5 and analyzed using ImageQuant. The intensity of synthesis was normalized to the intensity of the loading control in the same lane. Relative synthesis was calculated by dividing normalized synthesis at each inhibitor concentration by the normalized synthesis without inhibitor. […]

[5] = system: 9xnoGG DNA (TGAGTG)9; experiment: Circular dichroism thermal melt of 9xnoGG DNA; conditions: 10:1 small molecule:DNA; for thermal melt transition temperature: CD at 260 and 240 nm
Method: We performed thermal melts of 9xnoGG in Na^+ and Li^+ and monitored the signal at the predominant peaks (positive at 260 nm and negative at 240 nm). The curves were biphasic, with an initial sharp transition at ∼26°C and a minor, broader transition ∼40°C (Fig. 5E). We wondered whether the first transition might represent the dissociation of a dimeric species and collected a full CD spectrum of 9xnoGG at both 12°C and 30°C. While the spectra were very similar, the amplitudes of the positive and negative peaks at 12°C were nearly twice that of the same sample at 30°C (Supplemental Fig. S5B). CD peak attenuation is consistent with a dimer-to-monomer transition ([Kypr et al. 2009]; [Vorlíčková et al. 2012]).
as §2, §3
Continuous ramped thermal melts were performed at the indicated wavelengths with a 2 nm bandwidth. The temperature was increased from 20°C to 90°C at a rate of 1°C/min with a time-per-point of 12 sec. Positive peaks were normalized to 1 at the lowest temperature, and negative peaks were normalized to −1 at the lowest temperature. Spectra were smoothed as above.

T1 sequence (O14746 whole entry): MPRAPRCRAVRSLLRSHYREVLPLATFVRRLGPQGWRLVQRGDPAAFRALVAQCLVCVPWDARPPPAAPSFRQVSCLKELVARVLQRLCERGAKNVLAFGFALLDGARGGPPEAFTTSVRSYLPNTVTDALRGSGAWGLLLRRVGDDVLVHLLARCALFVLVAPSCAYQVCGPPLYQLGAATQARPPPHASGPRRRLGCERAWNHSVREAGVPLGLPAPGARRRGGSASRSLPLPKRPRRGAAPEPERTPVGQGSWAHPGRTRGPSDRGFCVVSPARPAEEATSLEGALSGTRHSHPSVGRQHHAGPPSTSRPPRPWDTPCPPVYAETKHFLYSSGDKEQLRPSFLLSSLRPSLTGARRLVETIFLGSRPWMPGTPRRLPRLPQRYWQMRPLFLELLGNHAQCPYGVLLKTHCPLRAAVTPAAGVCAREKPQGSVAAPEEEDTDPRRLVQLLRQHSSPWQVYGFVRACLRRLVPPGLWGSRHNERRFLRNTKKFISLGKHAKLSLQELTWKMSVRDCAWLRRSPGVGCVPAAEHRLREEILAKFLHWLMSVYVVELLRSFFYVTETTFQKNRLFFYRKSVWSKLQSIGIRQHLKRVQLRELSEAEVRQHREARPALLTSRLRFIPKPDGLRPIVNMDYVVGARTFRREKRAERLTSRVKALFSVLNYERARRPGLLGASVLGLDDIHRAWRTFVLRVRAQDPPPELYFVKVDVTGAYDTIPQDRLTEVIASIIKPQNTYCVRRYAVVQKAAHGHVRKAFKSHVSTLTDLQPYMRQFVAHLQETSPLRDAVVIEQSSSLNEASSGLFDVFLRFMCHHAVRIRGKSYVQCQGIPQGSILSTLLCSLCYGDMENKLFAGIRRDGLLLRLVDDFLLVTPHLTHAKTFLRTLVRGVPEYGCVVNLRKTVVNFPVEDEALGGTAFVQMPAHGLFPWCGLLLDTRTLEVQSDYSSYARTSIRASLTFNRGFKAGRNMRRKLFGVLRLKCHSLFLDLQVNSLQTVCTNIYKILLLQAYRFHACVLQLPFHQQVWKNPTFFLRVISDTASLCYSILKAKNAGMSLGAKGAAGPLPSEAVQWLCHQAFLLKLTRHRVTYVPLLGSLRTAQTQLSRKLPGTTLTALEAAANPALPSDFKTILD

| SMILES | IC50 ([1]; 2 nM telomerase, 50 nM 3xTEL DNA primer, 75 mM KCl/50 mM NaCl, 30°C, 1 h, read-out: half maximal inhibitory concentration (IC50) of telomerase) [µM] | IC50 ([2]; template 9xTEL, Li+) [nM] | IC50 ([2]; template 9xTEL, Na+/K+) [nM] | IC50 ([2]; template 9xnoGG, Li+) [nM] | IC50 ([2]; template 9xnoGG, Na+/K+) [nM] | stabilization in full spectrum thermal melt ([3]; 9xTEL in Li+) | stabilization of GQ secondary structure in thermal melt ([3]; 9xTEL in NaCl, complex could not be entirely melted, no Tm calculated) | IC50 ([4]; template 9xTEL, Li+) [nM] | IC50 ([4]; template 9xTEL, Na+/K+) [nM] | IC50 ([4]; template 9xnoGG, Li+) [nM] | IC50 ([4]; template 9xnoGG, Na+/K+) [nM] | IC50 [1] [µM] | thermal melt transition temperature ([5]; 9xnoGG in Li+) [°C] | thermal melt transition temperature ([5]; 9xnoGG in Na+) [°C] | increase of melting temperature of dimeric 9xnoGG ([5]; 9xnoGG) | increase of melting temperature (Tm) ([3]; 9xTEL in Na+, CD at 290 and 260 nm) | IC50synthesis in Li+ relative to Na+/K+ (fold higher) ([4]; template 9xTEL) |
| --- | --- | --- | --- | --- | --- | --- | --- | --- | --- | --- | --- | --- | --- | --- | --- | --- | --- |
| NCCOc1cc(C(=O)Nc2cc(OCCN)c3ccccc3n2)nc(C(=O)Nc2cc(OCCN)c3ccccc3n2)c1 [PDS, pyridostatin] | 0.52 | 140 | 110 | 160 | 120 | considerable stabilization | substantial stabilization | 110 | 140 | 180 | 200 | – | – | – | – | – | – |
| C[n+]1ccc(-c2c3nc(c(-c4cc[n+](C)cc4)c4ccc([nH]4)c(-c4cc[n+](C)cc4)c4ccc([nH]4)c(-c4cc[n+](C)cc4)c4nc2C=C4)C=C3)cc1 [TMPyP4] | – | 840 | 260 | 200 | 190 | – | – | 1000 | 250 | 310 | 220 | 6.4 | 52 | 52 | over 20 °C | about 10 °C | about fourfold |
